Results published in patent publication US20230339937A1, “CONDENSED RING COMPOUNDS THAT INHIBIT H-PGDS” (SATO PHARMACEUTICAL CO., LTD., priority 2020, published 2023).
Structures can show the parent of a compound that is named as a salt.

Target: T1, Recombinant human H-PGDS (Homo sapiens, UniProt O60760)
T1 construct: made in house; host or cells: E. coli
Assay: H-PGDS inhibitory activity (prostaglandin D2 production from prostaglandin H2, measured by LC-MS/MS)
Format: biochemical
Settings: recombinant human H-PGDS 1.0 nM expressed in E. coli; prostaglandin H2 25 μM; preincubated 15 minutes on ice, reacted on ice for 1 minute; concentration that inhibits prostaglandin D2 production by 50%
Protocol: The H-PGDS inhibitory activity of each Example compound was measured according to the method reported by LIN, Jiang. et al. (NO 2007/041634).
Recombinant human H-PGDS (final concentration: 1.0 nM) expressed in E. coli was mixed in an assay buffer containing 20 mM Tris-HCl (pH 8.0), 2 mM magnesium chloride, 2 mM reduced glutathione, and 0.5 mg/mL γ-globulin, and 150 μL of the mixture was dispensed into a 8-strip PCR tube (BM Equipment Co., Ltd.). Test compounds (Example compounds) (16.5 μL) at various concentrations dissolved in DMSO were added and the mixture was preincubated for 15 minutes on ice.
Prostaglandin H2 (final concentration: 25 μM) (Cayman Chemical) was dispensed into another 8-strip PCR tube, and the solvent was dried and solidified using a vacuum concentrator (Thermo Fisher Scientific). To the dried and solidified prostaglandin H2 was added 50 μL of the assay buffer containing H-PGDS and each test compound after the preincubation, and the mixture was reacted on ice for 1 minute. 45 μL of this mixture was added to 45 μL of a stop solution (50 mM aqueous citric acid solution containing iron chloride at a final concentration of 4 mg/mL) to stop the reaction. Then, the reaction solution was deproteinized, added to a 96 square deep well plate (SHONANMARUHACHI STEC Co., Ltd.), and the prostaglandin D2 concentration in the reaction solution was measured by LC-MS/MS. ACQUITY (registered trademark) TQD (Waters) was used as a measuring instrument.
Prostaglandin Da production activity (f) in the group with each test compound when a value obtained by subtracting the amount of production of prostaglandin D2 in the group without enzyme, which is non-specific production of prostaglandin D2, from the amount of production of prostaglandin Da in the group without test compound (DMSO-addition group) in each 8-strip PCR tube is 100% was calculated.

T1 sequence (O60760 whole entry): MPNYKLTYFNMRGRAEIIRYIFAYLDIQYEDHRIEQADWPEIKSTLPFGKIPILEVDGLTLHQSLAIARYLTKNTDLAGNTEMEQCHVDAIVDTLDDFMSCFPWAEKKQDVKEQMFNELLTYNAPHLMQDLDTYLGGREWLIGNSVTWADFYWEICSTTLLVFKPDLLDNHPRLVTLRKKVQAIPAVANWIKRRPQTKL

O=C(NCc1cccc(OC(F)F)c1)c1ccc(-c2nccc3[nH]ccc23)cc1 [Example 35, N-[3-(difluoromethoxy)benzyl]-4-(1H-pyrrolo[3,2-c]pyridin-4-yl)benzamide]
IC50: 1.6 nM

O=C(NCC1CCCC1)c1ccc(-c2nccc3[nH]ccc23)cc1 [Example 36, N-(cyclopenthyl-methyl)-4-(1H-pyrrolo[3,2-c]pyridin-4-yl)benzamide]
IC50: 0.83 nM

Cn1nccc1CNC(=O)c1ccc(-c2nccc3[nH]ccc23)cc1 [Example 37, N-[(1-methyl-1H-pyrazol-5-yl)methyl]-4-(1H-pyrrolo[3,2-c]pyridin-4-yl)benzamide]
IC50: 0.86 nM

Cc1cc(CNC(=O)c2ccc(-c3nccc4[nH]ccc34)cc2)nn1C [Example 38, N-[(1,5-dimethyl-1H-pyrazol-3-yl)methyl]-4-(1H-pyrrolo[3,2-c]pyridin-4-yl)benzamide]
IC50: 1.3 nM

Cc1nn(C)cc1CNC(=O)c1ccc(-c2nccc3[nH]ccc23)cc1 [Example 39, N-[(1,3-dimethyl-1H-pyrazol-4-yl)methyl]-4-(1H-pyrrolo[3,2-c]pyridin-4-yl)benzamide]
IC50: 1.1 nM

Cc1nn(C)c(C)c1CNC(=O)c1ccc(-c2nccc3[nH]ccc23)cc1 [Example 40, 4-(1H-pyrrolo[3,2-c]pyridin-4-yl)-N-[(1,3,5-trimethyl-1H-pyrazol-4-yl)methyl] benzamide]
IC50: 0.89 nM

Cn1cncc1CNC(=O)c1ccc(-c2nccc3[nH]ccc23)cc1 [Example 41, N-[(1-methyl-1H-imidazol-5-yl)methyl]-4-(1H-pyrrolo[3,2-c]pyridin-4-yl)benzamide]
IC50: 0.63 nM

Cc1c(CNC(=O)c2ccc(-c3nccc4[nH]ccc34)cc2)cnn1C [Example 42, N-[(1,5-dimethyl-1H-pyrazol-4-yl)methyl]-4-(1H-pyrrolo[3,2-c]pyridin-4-yl)benzamide]
IC50: 0.74 nM

O=C(NCc1cnn(CC(F)(F)F)c1)c1ccc(-c2nccc3[nH]ccc23)cc1 [Example 43, 4-(1H-pyrrolo[3,2-c]pyridin-4-yl)-N-{[1-(2,2,2-trifluoroethyl)-1H-pyrazol-4-yl]methyl} benzamide]
IC50: 1.3 nM

CCCn1ccc(CNC(=O)c2ccc(-c3nccc4[nH]ccc34)cc2)n1 [Example 44, N-[(1-propyl-1H-pyrazol-3-yl)methyl]-4-(1H-pyrrolo[3,2-c]pyridin-4-yl)benzamide]
IC50: 0.98 nM

COCCn1nc(C)c(CNC(=O)c2ccc(-c3nccc4[nH]ccc34)cc2)c1C [Example 45, N-{[1-(2-methoxyethyl)-3,5-dimethyl-1H-pyrazol-4-yl]methyl}-4-(1H-pyrrolo[3,2-c]pyridin-4-yl)benzamide]
IC50: 0.91 nM

O=C(NCCCN1CCS(=O)(=O)CC1)c1ccc(-c2nccc3[nH]ccc23)cc1 [Example 46, N-[3-(1,1-dioxidothiomorpholino)propyl]-4-(1H-pyrrolo[3,2-c]pyridin-4-yl)benzamide]
IC50: 0.63 nM

NS(=O)(=O)c1ccc(CCNC(=O)c2ccc(-c3nccc4[nH]ccc34)cc2)cc1 [Example 47, 4-(1H-pyrrolo[3,2-c]pyridin-4-yl)-N-(4-sulfamoylphenethyl) benzamide]
IC50: 1.1 nM

COCCn1cc(CNC(=O)c2ccc(-c3nccc4[nH]ccc34)cc2)cn1 [Example 48, N-{[1-(2-methoxyethyl)-1H-pyrazol-4-yl]methyl}-4-(1H-pyrrolo[3,2-c]pyridin-4-yl)benzamide]
IC50: 0.72 nM

Cc1cc(CNC(=O)c2ccc(-c3nccc4[nH]ccc34)cc2)[nH]n1 [Example 49, N-[(3-methyl-1H-pyrazol-5-yl)methyl]-4-(1H-pyrrolo[3,2-c]pyridin-4-yl)benzamide]
IC50: 1.2 nM

Cn1cc(Br)c(CNC(=O)c2ccc(-c3nccc4[nH]ccc34)cc2)n1 [Example 50, N-[(4-bromo-1-methyl-1H-pyrazol-3-yl)methyl]-4-(1H-pyrrolo[3,2-c]pyridin-4-yl)benzamide]
IC50: 1.4 nM

CCn1nccc1CNC(=O)c1ccc(-c2nccc3[nH]ccc23)cc1 [Example 51, N-[(1-ethyl-1H-pyrazol-5-yl)methyl]-4-(1H-pyrrolo[3,2-c]pyridin-4-yl)benzamide]
IC50: 0.63 nM

Cn1ccnc1CNC(=O)c1ccc(-c2nccc3[nH]ccc23)cc1 [Example 52, N-[(1-methyl-1H-imidazol-2-yl)methyl]-4-(1H-pyrrolo[3,2-c]pyridin-4-yl)benzamide]
IC50: 1.6 nM

Cn1ccc(CNC(=O)c2ccc(-c3nccc4[nH]ccc34)cc2)n1 [Example 53, N-[(1-methyl-1H-pyrazol-3-yl)methyl]-4-(1H-pyrrolo[3,2-c]pyridin-4-yl)benzamide]
IC50: 1.3 nM

O=C(NCc1cc[nH]n1)c1ccc(-c2nccc3[nH]ccc23)cc1 [Example 54, N-[(1H-pyrazol-3-yl)methyl]-4-(1H-pyrrolo[3,2-c]pyridin-4-yl)benzamide]
IC50: 1.2 nM

Cn1cc(CNC(=O)c2ccc(-c3nccc4[nH]ccc34)cc2)cn1 [Example 55, N-[(1-methyl-1H-pyrazol-4-yl)methyl]-4-(1H-pyrrolo[3,2-c]pyridin-4-yl)benzamide]
IC50: 1.2 nM

O=C(NCc1ccccc1Cl)c1ccc(-c2nccc3[nH]ccc23)cc1 [Example 56, N-(2-chlorobenzyl)-4-(1H-pyrrolo[3,2-c]pyridin-4-yl)benzamide]
IC50: 1.7 nM

O=C(NCc1cccc(Cl)c1)c1ccc(-c2nccc3[nH]ccc23)cc1 [Example 57, N-(3-chlorobenzyl)-4-(1H-pyrrolo[3,2-c]pyridin-4-yl)benzamide]
IC50: 1.4 nM

O=C(NCc1ccc(Cl)cc1)c1ccc(-c2nccc3[nH]ccc23)cc1 [Example 58, N-(4-chlorobenzyl)-4-(1H-pyrrolo[3,2-c]pyridin-4-yl)benzamide]
IC50: 0.64 nM

O=C(NCc1ccccc1)c1ccc(-c2nccc3sccc23)cc1 [Example 59, N-benzyl-4-(thieno[3,2-c]pyridin-4-yl)benzamide]
IC50: 9.6 nM

O=C(NCc1ccncc1)c1ccc(-c2nccc3sccc23)cc1 [Example 60, N-(pyridin-4-ylmethyl)-4-(thieno[3,2-c]pyridin-4-yl)benzamide]
IC50: 15 nM

CC(O)CNC(=O)c1ccc(-c2nccc3sccc23)cc1 (stereo not shown) [Example 61, N-(2-hydroxypropyl)-4-(thieno[3,2-c]pyridin-4-yl)benzamide]
IC50: 31 nM

CC(C)N(CCNC(=O)c1ccc(-c2nccc3sccc23)cc1)C(C)C [Example 62, N-[2-(diisopropylamino)ethyl]-4-(thieno[3,2-c]pyridin-4-yl)benzamide dihydrochloride]
IC50: 86 nM

CC(C)(O)[C@H]1CC[C@H](NC(=O)c2ccc(-c3nccc4sccc34)cc2)CC1 [Example 63, N-[trans-4-(2-hydroxypropan-2-yl)cyclohexyl]-4-(thieno[3,2-c]pyridin-4-yl)benzamide]
IC50: 1.5 nM

CC(C)(O)CO[C@H]1CC[C@H](NC(=O)c2ccc(-c3nccc4occc34)cc2)CC1 [Example 64, 4-(furo[3,2-c]pyridin-4-yl)-N-[trans-4-(2-hydroxy-2-methylpropoxy)cyclohexyl]benzamide]
IC50: 3.1 nM

O=C(NCc1ccccc1CO)c1ccc(-c2nccc3occc23)cc1 [Example 65, 4-(furo[3,2-c]pyridin-4-yl)-N-[2-(hydroxymethyl)benzyl]benzamide]
IC50: 9 nM

O=C(NCc1cccc(CO)c1)c1ccc(-c2nccc3occc23)cc1 [Example 66, 4-(furo[3,2-c]pyridin-4-yl)-N-[3-(hydroxymethyl)benzyl]benzamide]
IC50: 6.4 nM

O=C(NCc1ccccc1)c1ccc(-c2nccc3occc23)cc1 [Example 67, N-benzyl-4-(furo[3,2-c]pyridin-4-yl)benzamide]
IC50: 27 nM

CC(O)CNC(=O)c1ccc(-c2nccc3occc23)cc1 (stereo not shown) [Example 68, 4-(furo[3,2-c]pyridin-4-yl)-N-(2-hydroxypropyl) benzamide]
IC50: 15 nM

O=C(NCc1cccc(Cl)c1)c1ccc(-c2nccc3occc23)cc1 [Example 69, N-(3-chlorobenzyl)-4-(furo[3,2-c]pyridin-4-yl)benzamide]
IC50: 6 nM

O=C(NCc1ccc(Cl)cc1)c1ccc(-c2nccc3occc23)cc1 [Example 70, N-(4-chlorobenzyl)-4-(furo[3,2-c]pyridin-4-yl)benzamide]
IC50: 12 nM

O=C(NCc1ccccc1Cl)c1ccc(-c2nccc3occc23)cc1 [Example 71, N-(2-chlorobenzyl)-4-(furo[3,2-c]pyridin-4-yl)benzamide]
IC50: 12 nM

O=C(NCc1ccncc1)c1ccc(-c2nccc3occc23)cc1 [Example 72, 4-(furo[3,2-c]pyridin-4-yl)-N-(pyridin-4-ylmethyl) benzamide]
IC50: 12 nM

N#Cc1cccc(CNC(=O)c2ccc(-c3nccc4occc34)cc2)c1 [Example 73, N-(3-cyanobenzyl)-4-(furo[3,2-c]pyridin-4-yl)benzamide]
IC50: 4.8 nM

N#Cc1ccc(CNC(=O)c2ccc(-c3nccc4occc34)cc2)cc1 [Example 74, N-(4-cyanobenzyl)-4-(furo[3,2-c]pyridin-4-yl)benzamide]
IC50: 6.3 nM
